Consider three molecules from patent US20210253598A1, “ARYL ANNULATED MACROCYCLIC INDOLE DERIVATIVES” (priority 2017, published 2021).

“And” between values parts separate entries of the source, which are not always exact repeats. Identical values can stand only once. Like-named read-outs stand apart in the source and are kept apart here.

For data set [1] the following is noted: 11-membered ring.
The conditions of data set [2]: the molecule shown is the open-chain precursor; crosslinker bond; 11-membered ring; 2,3-bis(chloromethyl)pyrazine/Cs2CO3/NaI; MeCN; 9.09 mM; 70.0 °C.
For data set [3] the following is noted: the molecule shown is the open-chain precursor; crosslinker bond; 11-membered ring; 2,3-bis(chloromethyl)pyridine HCl/Cs2CO3/NaI; MeCN; 73.1 mM; 75.0 °C.
The conditions of data set [4]: from CCOC(=O)c1c(CCCOc2cccc3ccccc23)c2ccc(Cl)c(-c3c(CO)nn(C)c3C)c2n1Cc1ccccc1CBr; ether bond; sodium hydride / di-tert-butyl imidodicarbonate; THF; 29.9 mM; […]; 72.0 h.

In data set [1] (the molecule shown is the open-chain precursor, crosslinker bond, 1,2-bis(bromomethyl)benzene/Cs2CO3, MeCN/THF 2:1, 24.3 mM, 80.0 °C), `CCOC(=O)c1[nH]c2c(-c3c(CO)nn(C)c3C)c(Cl)ccc2c1CCCOc1cccc2cc(F)ccc12` came in with a ring closure, isolated yield of 74%. The molecule also showed a ring closure, crude yield in data set [2] of 90%.
On to `CCOC(=O)c1[nH]c2c(-c3c(CO)nn(C)c3C)cccc2c1CCCOc1cccc2ccccc12`, for which, in data set [3], the ring closure, yield after HPLC was 20% and 30%.
`CCOC(=O)c1c(CCCOc2cccc3ccccc23)c2ccc(Cl)c3c2n1Cc1ccccc1COCc1nn(C)c(C)c1-3` registered a ring closure, isolated yield in data set [1] (from CCOC(=O)c1c(CCCOc2cccc3ccccc23)c2ccc(Cl)c(-c3c(CO)nn(C)c3C)c2n1Cc1ccccc1CBr, ether bond, NaH/di-tert-butyl imidodicarbonate, THF, 29.9 mM, […]) of 76%. For the same molecule, in data set [4], the ring closure, yield of all isomers worked out at 76%.
